Measurements from BigSolDB 2.1.

CN1C(C(=O)Nc2ccccn2)=C(O)c2sc(Cl)cc2S1(=O)=O
Conditions	solubility (mole fraction)
in PEG-400, 298.15 K	0.00861
in PEG-400, 303.15 K	0.0099
in PEG-400, 308.15 K	0.0112
in PEG-400, 313.15 K	0.013
in PEG-400, 323.15 K	0.0171

in water
Conditions	solubility (mole fraction)
298.15 K	2.9e-06
303.15 K	4.11e-06
308.15 K	5.62e-06
313.15 K	7.41e-06
323.15 K	1.2e-05
